Reference: patent US6274627A, “Conjugates of dithiocarbamate disulfides with pharmacologically active agents and uses therefor” (Medinox, Inc., priority 1999, dated 2001)
“Also recorded” adds a separate entry of the source.

How the values were obtained:
[1] = system: gastrointestinal toxicity; settings: in vivo; cited from earlier work
[2] = system: COX-2; settings: cited from earlier work
[3] = system: esterase; assay: Enzymatic hydrolysis of PDD-NSAIDs by esterase; assay type: in vitro ADME; settings: for time within which the compound was decomposed into two compounds: esterase, PBS buffer, as described for compound 12
Description: The resulting solution was put in a water bath (37° C.) for 30 min and then at room temperature overnight.

[4] = system: male Sprague-Dawley rats (stomach, gastric lesions); assay: Gastric erosions in the rat gastropathy model; assay type: in vivo; settings: oral; for length of the lesions (most of the lesions): corpus of the stomach; for number of gastric lesions, dose dependence: naproxen 15 and 30 mg/kg, PDD-Naproxen 27 & 54 mg/kg (equimolar)
[5] = system: Lewis male rats (M. tuberculosis adjuvant-induced arthritis); assay: Chronic inflammation: rat adjuvant arthritis model; assay type: in vivo; settings: for reduction of swelling compared to control by day 15: oral high doses: naproxen 10 mg/kg, days 5-8 and 11-14
Description: Thus, paw volume increases (measured with a Plethysmometer) are reported as a function of time, and were measured in the injected feet of Lewis male rats in which arthritis was induced by intradermel injection of adjuvant into the footpad.
NSAIDs are useful in both chronic and acute inflammatory conditions. Efficacy in chronic inflammation can be estimated using the rat adjuvant arthritis model (Blackham et al. supra). In this model Lewis male rats (175-250 g) were injected intradermally in the footpad with M. tuberculosis powder suspended in mineral oil at 5 mg/ml. Progressive swelling of the uninjected paw and ankle joint between days 11 and 15 was measured by plethysmometry.

[6] = system: male Sprague-Dawley rats (carrageenan-injected paw); assay: Acute inflammation: rat carrageenan-induced hindlimb edema model; assay type: in vivo
Description: Efficacy of NSAIDs in acute inflammation can be estimated by using intraplantar injection of carrageenan in the rat. Male Sprague-Dawley rats (200-250 g) were injected intradermally in the footpad with 50 μl of a 1% carrageenan solution in PBS. Swelling of the injected paw was measured at 2, 3, 5 & 7 hours using a plethysmometer.

[7] = Plasma pharmacokinetics of naproxen following oral administration of PDD-Naproxen or naproxen in rats
[8] = system: nuclear factor kappa B; settings: intact cells; cited from earlier work
[9] = system: cancer patients; settings: cancer patients receiving adriamycin chemotherapy; cited from earlier work
[10] = iron-ICRF-187 complex, Fenton reaction; cited from earlier work
[11] = PDD-Naproxen (NOX-319) 18 mg/kg

COc1ccc2cc(CCC(C)=O)ccc2c1 [nabumetone]
gastrointestinal toxicity relative to other NSAIDs on the market [1]: reduced gastrointestinal toxicity
selectivity for COX-2 [2]: marked selectivity for COX-2

CC(C)Cc1ccc(C(C)C(=O)OCCCOC(=O)[C@@H]2CCCN2C(=S)SSC(=S)N2CCC[C@H]2C(=O)OCCCOC(=O)C(C)c2ccc(CC(C)C)cc2)cc1 (stereo partly shown) [Compound 16]
time within which the compound was decomposed into two compounds [3]: ≤ 5 h

CC(C(=O)OCCCOC(=O)[C@@H]1CCCN1C(=S)SSC(=S)N1CCC[C@H]1C(=O)OCCCOC(=O)C(C)c1cccc(C(=O)c2ccccc2)c1)c1cccc(C(=O)c2ccccc2)c1 (stereo partly shown) [Compound 20]
time within which the compound was decomposed into two compounds [3]: ≤ 5 h

COc1ccc2cc([C@H](C)C(=O)O)ccc2c1 [Naproxen, (S)-(+)-methoxy-α-methyl-2-naphthaleneacetic acid, reference compound]
length of the lesions (most of the lesions) [4]: less than 2 mm
number of gastric lesions, dose dependence ([4]; 3 h): dose-related number of lesions
reduction of swelling compared to control by day 15 [5, 11]: approximately 70%

COc1ccc2cc(C(C)C(=O)OCCCOC(=O)C3CCCN3C(=S)SSC(=S)N3CCCC3C(=O)OCCCOC(=O)C(C)c3ccc4cc(OC)ccc4c3)ccc2c1 (stereo not shown) [PDD-Naproxen]
decomposition by esterase ([3]; 33.3 units esterase in PBS buffer, 37° C. for 30 min, then room temperature overnight): decomposed into two compounds
gastric safety / tendency to cause gastric erosions, overall ([4]; relative to naproxen): has the ability to reduce the number of erosions in the corpus of the stomach; also recorded: tendency to cause gastric erosions is reduced; also recorded: improved gastric safety
number of gastric erosions, low dose ([4]; PDD-Naproxen 27 mg/kg vs naproxen 15 mg/kg, 6 animals in each group): fewer erosions than the low dose of naproxen, but statistical significance was not achieved
number of gastric lesions, high dose ([4]; PDD-Naproxen 54 mg/kg vs naproxen 30 mg/kg, 3 h): significantly fewer lesions than the high dose naproxen group (ANOVA; p<0.005)
length of the lesions (most of the lesions) [4]: less than 2 mm
number of gastric lesions, dose dependence ([4]; 3 h): dose-related number of lesions
reduction in paw swelling ([6]; oral 1 h before carrageenan, naproxen 10 mg/kg or PDD-Naproxen 18 mg/kg (equimolar)): reduced inflammation significantly at 2 and 3 hours, but started to wear off by 5 hours
acute antiinflammatory activity, overall ([6]; oral, carrageenan model): orally active in rats, but slightly less effective vs acute inflammation than the parent drug; also recorded: antiinflammatory activity similar to naproxen; also recorded: alleviation of acute inflammation
reduction of swelling compared to control by day 15 [5, 11]: approximately 70%
chronic antiinflammatory effect, overall ([5]; oral, equimolar doses, vs naproxen): antiinflammatory activity similar to naproxen; also recorded: antiinflammatory effects equal to those of naproxen; also recorded: effectiveness of PDD-Naproxen in the treatment of adjuvant-induced arthritis
effect on swelling by day 15, lower doses ([5]; oral, naproxen 1 mg/kg, PDD-Naproxen (NOX-319) 1.8 mg/kg): slight effect by day 15
reduction of swelling on days 13 through 15, high doses ([5]; oral, naproxen 10 mg/kg, PDD-Naproxen (NOX-319) 18 mg/kg): comparable reduction of swelling
naproxen pharmacokinetic profile, overall ([7]; oral or IV, vs naproxen itself): better naproxen pharmacokinetic profiles than naproxen itself
AUCinf comparison, oral ([7]; oral, PDD-Naproxen vs naproxen): no significant difference

S=C(S)N1CCCC1 [pyrrolidine dithiocarbamate]
inhibition of nuclear factor kappa B [8]: potent inhibitors of nuclear factor kappa B

C[C@@H](CN1CC(=O)NC(=O)C1)N1CC(=O)NC(=O)C1 [ICRF-187]
removal of iron from the anthracycline-iron complex, preventing cardiac toxicity [9]: effective for the removal of iron from the anthracycline-iron complex, therefore preventing the cardiac toxicity
promotion of hydroxyl radical generation [10]: very effective at promoting hydroxyl radical generation

COc1ccc2c(c1)c(CC(=O)OCCCOC(=O)[C@@H]1CCCN1C(=S)SSC(=S)N1CCC[C@H]1C(=O)OCCCOC(=O)Cc1c(C)n(C(=O)c3ccc(Cl)cc3)c3ccc(OC)cc13)c(C)n2C(=O)c1ccc(Cl)cc1 [Compound 24]
time within which the compound was decomposed into two compounds [3]: ≤ 5 h
